Species on record: Rattus norvegicus
Assay: Open TG-GATES - Regimen: Single
Format: toxicity, organism-based, Sprague-Dawley
Design: regimen Single, gender Male, age 6 weeks
Conditions: in vivo, po, 0 mg/kg, route gavage, dose level Control; for APTT / Bas / Eos / Fbg / Hb / Ht / Lym / MCH / MCHC / MCV / Mono / Neu / PT / Plat / RBC / Ret / WBC: tissue Blood; for KIDNEY_L / KIDNEY_R / KIDNEY_TOTAL: tissue Kidney; for LIVER: tissue Liver

CC(=O)N1CCN(c2ccc(OCC3COC(Cn4ccnc4)(c4ccc(Cl)cc4Cl)O3)cc2)CC1 (stereo not given) [KETOCONAZOLE]
TERMINAL_BW (3 h): 204 g | APTT (3 h): 20.5 s | Bas (3 h): 0% | Eos (3 h): 0.8% | Fbg (3 h): 282.4 mg/dL | Hb (3 h): 12.8 g/dL | Ht (3 h): 38.4% | Lym (3 h): 76.4% | MCH (3 h): 21.5 pg | MCHC (3 h): 33.4% | MCV (3 h): 64.4 fL | Mono (3 h): 1.6% | Neu (3 h): 19.8% | PT (3 h): 16.9 s | Plat (3 h): 117 x10_4/uL | RBC (3 h): 596.2 x10_4/ul | Ret (3 h): 8.8% | WBC (3 h): 73.4 x10_2/uL | KIDNEY_L (3 h): 0.9 g | KIDNEY_R (3 h): 0.9 g | KIDNEY_TOTAL (3 h): 1.9 g | LIVER (3 h): 9.8 g | ALP (3 h, tissue Plasma): 1856.6 IU/L | AST (3 h, tissue Plasma): 76.2 IU/L | BUN (3 h, tissue Plasma): 13.2 mg/dL | CRE (3 h, tissue Plasma): 0.2 mg/dL | Ca (3 h, tissue Plasma): 11 mg/dL | Cl (3 h, tissue Plasma): 104.8 meq/L | DBIL (3 h, tissue Plasma): 0.004 mg/dL | GLC (3 h, tissue Plasma): 175.4 mg/dL | IP (3 h, tissue Plasma): 7.9 mg/dL | LDH (3 h, tissue Plasma): 167.6 IU/L | Na (3 h, tissue Plasma): 141.8 meq/L | PL (3 h, tissue Plasma): 135 mg/dL | RALB (3 h, tissue Plasma): 2.9 g/dL | TBIL (3 h, tissue Plasma): 0.016 mg/dL | TC (3 h, tissue Plasma): 74.8 mg/dL | TG (3 h, tissue Plasma): 63.2 mg/dL | TP (3 h, tissue Plasma): 5.4 g/dL | gamma-GTP (3 h, tissue Plasma): 1 IU/L | TERMINAL_BW (6 h): 204.2 g | APTT (6 h): 21.3 s | Bas (6 h): 0% | Eos (6 h): 0.8% | Fbg (6 h): 293.6 mg/dL | Hb (6 h): 13.2 g/dL | Ht (6 h): 39.7% | Lym (6 h): 83.2% | MCH (6 h): 21.5 pg | MCHC (6 h): 33.2% | MCV (6 h): 64.7 fL | Mono (6 h): 1.8% | Neu (6 h): 13.4% | PT (6 h): 16.9 s | Plat (6 h): 122.1 x10_4/uL | RBC (6 h): 613.4 x10_4/ul | Ret (6 h): 8.4% | WBC (6 h): 78.2 x10_2/uL | KIDNEY_L (6 h): 1 g | KIDNEY_R (6 h): 1 g | KIDNEY_TOTAL (6 h): 1.9 g | LIVER (6 h): 9.1 g | ALP (6 h, tissue Plasma): 1433 IU/L | AST (6 h, tissue Plasma): 71 IU/L | BUN (6 h, tissue Plasma): 9.6 mg/dL | CRE (6 h, tissue Plasma): 0.2 mg/dL | Ca (6 h, tissue Plasma): 10.8 mg/dL | Cl (6 h, tissue Plasma): 105.6 meq/L | DBIL (6 h, tissue Plasma): 0 mg/dL | GLC (6 h, tissue Plasma): 176.8 mg/dL | IP (6 h, tissue Plasma): 8.4 mg/dL | LDH (6 h, tissue Plasma): 197.4 IU/L | Na (6 h, tissue Plasma): 141.2 meq/L | PL (6 h, tissue Plasma): 124.2 mg/dL | RALB (6 h, tissue Plasma): 2.9 g/dL | TBIL (6 h, tissue Plasma): 0.022 mg/dL | TC (6 h, tissue Plasma): 67.6 mg/dL | TG (6 h, tissue Plasma): 47.6 mg/dL | TP (6 h, tissue Plasma): 5.4 g/dL | gamma-GTP (6 h, tissue Plasma): 1 IU/L | TERMINAL_BW (9 h): 201.8 g | APTT (9 h): 21.3 s | Bas (9 h): 0% | Eos (9 h): 1.2% | Fbg (9 h): 294.4 mg/dL | Hb (9 h): 13 g/dL | Ht (9 h): 38.9% | Lym (9 h): 75% | MCH (9 h): 21.1 pg | MCHC (9 h): 33.3% | MCV (9 h): 63.3 fL | Mono (9 h): 1.8% | Neu (9 h): 21.4% | PT (9 h): 16.4 s | Plat (9 h): 138.7 x10_4/uL | RBC (9 h): 615.6 x10_4/ul | Ret (9 h): 7.7% | WBC (9 h): 69.1 x10_2/uL | KIDNEY_L (9 h): 1 g | KIDNEY_R (9 h): 1 g | KIDNEY_TOTAL (9 h): 1.9 g | LIVER (9 h): 8.6 g | ALP (9 h, tissue Plasma): 1580.4 IU/L | AST (9 h, tissue Plasma): 75 IU/L | BUN (9 h, tissue Plasma): 10.2 mg/dL | CRE (9 h, tissue Plasma): 0.2 mg/dL | Ca (9 h, tissue Plasma): 10.4 mg/dL | Cl (9 h, tissue Plasma): 106 meq/L | DBIL (9 h, tissue Plasma): 0.008 mg/dL | GLC (9 h, tissue Plasma): 180.4 mg/dL | IP (9 h, tissue Plasma): 9.5 mg/dL | LDH (9 h, tissue Plasma): 227.2 IU/L | Na (9 h, tissue Plasma): 142.2 meq/L | PL (9 h, tissue Plasma): 125.6 mg/dL | RALB (9 h, tissue Plasma): 3.1 g/dL | TBIL (9 h, tissue Plasma): 0.026 mg/dL | TC (9 h, tissue Plasma): 67.2 mg/dL | TG (9 h, tissue Plasma): 52.6 mg/dL | TP (9 h, tissue Plasma): 5.5 g/dL | gamma-GTP (9 h, tissue Plasma): 1 IU/L | TERMINAL_BW (24 h): 213.9 g | APTT (24 h): 19.8 s | Bas (24 h): 0% | Eos (24 h): 0.8% | Fbg (24 h): 307.2 mg/dL | Hb (24 h): 13.3 g/dL | Ht (24 h): 38.9% | Lym (24 h): 77.6% | MCH (24 h): 21.8 pg | MCHC (24 h): 34.2% | MCV (24 h): 63.9 fL | Mono (24 h): 2% | Neu (24 h): 19% | PT (24 h): 16.7 s | Plat (24 h): 117.4 x10_4/uL | RBC (24 h): 609 x10_4/ul | Ret (24 h): 7.5% | WBC (24 h): 70.3 x10_2/uL | KIDNEY_L (24 h): 1 g | KIDNEY_R (24 h): 1 g | KIDNEY_TOTAL (24 h): 2 g | LIVER (24 h): 10.4 g | ALP (24 h, tissue Plasma): 1980.8 IU/L | ALT (24 h, tissue Plasma): 44 IU/L | AST (24 h, tissue Plasma): 73.2 IU/L | BUN (24 h, tissue Plasma): 16.4 mg/dL | CRE (24 h, tissue Plasma): 0.2 mg/dL | Ca (24 h, tissue Plasma): 10.7 mg/dL | Cl (24 h, tissue Plasma): 107.2 meq/L | DBIL (24 h, tissue Plasma): 0 mg/dL | GLC (24 h, tissue Plasma): 185.6 mg/dL | IP (24 h, tissue Plasma): 6.5 mg/dL | LDH (24 h, tissue Plasma): 211.2 IU/L | Na (24 h, tissue Plasma): 142.2 meq/L | PL (24 h, tissue Plasma): 147 mg/dL | RALB (24 h, tissue Plasma): 3.1 g/dL | TBIL (24 h, tissue Plasma): 0.002 mg/dL | TC (24 h, tissue Plasma): 76.6 mg/dL | TG (24 h, tissue Plasma): 107.6 mg/dL | TP (24 h, tissue Plasma): 5.6 g/dL

From ChEMBL document CHEMBL3885861, “Open TG-GATES”
